Assay results taken from patent publication US20260224549A1, “COMPOUNDS, COMPOSITIONS, AND METHODS FOR TREATING, AMELIORATING, AND/OR PREVENTING PAIN” (priority 2023, published 2026).

What was measured:
[1] = Static vapor sorption studies; format: physicochemical; conditions: Panel: Static humidity; 7 experiments
Text: Static Vapor Sorption Studies
Static vapor sorption studies were done in hermetic humidity chambers using saturated salts, or environmental humidity chambers to control the temperature and humidity. Data collected during dynamic vapor sorption studies often are not at thermodynamic equilibrium. To gain a better understanding of the water uptake and the critical humidity level of the API, samples of the starting material (i.e., Form A) were monitored in static humidity chambers to allow the sample to equilibrate with atmospheric moisture.
In these studies, water vapor sorption was determined gravimetrically by storing samples in open aluminum dishes. Compound I diphosphate salt lot was used for this study. Samples were stored at 7 different humidity levels at ambient temperature (Table 19). Approximately 50 mg of Form A was staged at each humidity condition. The samples were weighed before placing them in the chamber and then re-weighed after 3 weeks. After re-weighing, the samples were immediately analyzed by XRD to determine whether a change in form had occurred.
The sample stored at 11% RH was an outlier and was therefore omitted from the final isotherm plot. The static isotherm plot is roughly consistent with the DVS isotherm plot (FIG. 12F) with a large moisture uptake at around 40% RH and a maximum uptake between 4 and 5 weight percent.

Compound: CN(C)C[C@H]1CN(CCc2ccsc2)CC[C@]1(O)c1cccc(C(N)=O)c1 [Compound I, 3-(3S, 4R)-3-((dimethylamino)methyl)-4-hydroxy-1-(2-(thiophen-3-yl)ethyl)piperidin-4-yl-benzamide]
- abuse liability (Conditioned Place Preference, Drug Self-Administration, Drug Discrimination): no abuse liability
- Withdrawal symptoms (preclinical model): only minimal Withdrawal symptoms
- No. of experiments giving Amorphous Form [1]: 0
- No. of experiments giving Form A [1]: 7
- No. of experiments with No solid recovered [1]: 0
